The values that follow come from US12594276B2, “Inhibitors of human immunodeficiency virus replication” (ViiV Healthcare UK (No.5) Limited, priority 2024, dated 2026).

pEC50: −log10 of the molar value. Read-outs that look alike come from different tables or passages of the source. Bounds are passed on as bounds.

For data set [1], the system named is recombinant NL4-3 virus (nef section replaced with Renilla luciferase gene) in MT-2 cells. Description: HIV cell culture assay (antiviral activity, luciferase readout). The data set is classed as cell-based. Conditions: Renilla, NL43, MT-2 cells infected for 4-5 days with recombinant NL4-3 Renilla luciferase virus. In a few lines: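 EC50 was derived by median-effect fitting of Renilla luciferase signal from MT-2 cells. These cells were infected for 4–5 days with NL4-3 reporter virus (nef partly replaced by luciferase; made in 293T cells) in the presence of serially diluted compound. Activity was quantified with a live-cell luciferase substrate.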

A short description of data set [2]: Compound cytotoxicity, XTT-based colorimetric assay. The data set is classed as cell-based. As to conditions: human. The essentials: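 Follows the antiviral assay procedure, but with uninfected MT2 cells. On day 4, cell viability is measured by XTT-based colorimetry, giving CC50 values.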
The mark [3] stands for this setting: uninfected MT2 cells, day 4, XTT, read-out: CC50.

As for `Cc1cc(C2CCC(F)(F)CC2)nc2nc([C@H](Cc3cc(F)cc(F)c3)NC(=O)Cn3nc(C4CC4)c4c3C[C@@H]3C[C@H]43)n(-c3ccc(Cl)c4c(NS(C)(=O)=O)nn(CCN5CCCCC5)c34)c(=O)c12` (atropisomer, axis not shown; (P)) [Example 276, N-[(1S)-1-[(3P)-3-{4-chloro-3-methanesulfonamido-1-[2-(piperidin-1-yl)ethyl]-1H-indazol-7-yl}-7-(4,4-difluorocyclohexyl)-5-methyl-4-oxo-3H,4H-pyrido[2,3-d]pyrimidin-2-yl]-2-(3,5-difluorophenyl)ethyl]-2-[(2S,4S)-9-cyclopropyl-7,8-diazatricyclo[4.3.0.0^2,^4]nona-1(6),8-dien-7-yl]acetamide], the pEC50 in data set [1] is 10.80. Moreover, in data set [2] (setting [3]), the CC50 at 4 days is greater than 50 nM.
Consider `Cc1cc(C2CCC(F)(F)CC2)nc2nc([C@H](Cc3cc(F)cc(F)c3)NC(=O)Cn3nc(C4CC4)c4c3C[C@@H]3C[C@H]43)n(-c3ccc(Cl)c4c(NS(C)(=O)=O)nn(CCN5CCC(F)CC5)c34)c(=O)c12` (atropisomer, axis not shown; (P)) [Example 277, N-[(1S)-1-[(3P)-3-{4-chloro-1-[2-(4-fluoropiperidin-1-yl)ethyl]-3-methanesulfonamido-1H-indazol-7-yl}-7-(4,4-difluorocyclohexyl)-5-methyl-4-oxo-3H,4H-pyrido[2,3-d]pyrimidin-2-yl]-2-(3,5-difluorophenyl)ethyl]-2-[(2S,4S)-9-cyclopropyl-7,8-diazatricyclo[4.3.0.0^2,^4]nona-1(6),8-dien-7-yl]acetamide], for which the pEC50 in data set [1] is 11.05. In data set [2] (setting [3]), the CC50 at 4 days is greater than 50 nM.
Turning to `Cc1cc(C2CCC(F)(F)CC2)nc2nc([C@H](Cc3cc(F)cc(F)c3)NC(=O)Cn3nc(C4CC4)c4c3C[C@@H]3C[C@H]43)n(-c3ccc(Cl)c4c(NS(C)(=O)=O)nn(CCN5CCC(C)(F)CC5)c34)c(=O)c12` (atropisomer, axis not shown; (P)) [Example 278, N-[(1S)-1-[(3P)-3-{4-chloro-1-[2-(4-fluoro-4-methylpiperidin-1-yl)ethyl]-3-methanesulfonamido-1H-indazol-7-yl}-7-(4,4-difluorocyclohexyl)-5-methyl-4-oxo-3H,4H-pyrido[2,3-d]pyrimidin-2-yl]-2-(3,5-difluorophenyl)ethyl]-2-[(2S,4S)-9-cyclopropyl-7,8-diazatricyclo[4.3.0.0^2,^4]nona-1(6),8-dien-7-yl]acetamide], the pEC50 in data set [1] was 11.30. Further, the CC50 at 4 days in data set [2] (setting [3]) is greater than 50 nM.
The like results for `Cc1cc(C2CCC(F)(F)CC2)nc2nc([C@H](Cc3cc(F)cc(F)c3)NC(=O)Cn3nc(C4CC4)c4c3C[C@@H]3C[C@H]43)n(-c3ccc(Cl)c4c(NS(C)(=O)=O)nn(CCNC5COC5)c34)c(=O)c12` (atropisomer, axis not shown; (P)) [Example 279, N-[(1S)-1-[(3P)-3-(4-chloro-3-methanesulfonamido-1-{2-[(oxetan-3-yl)amino]ethyl}-1H-indazol-7-yl)-7-(4,4-difluorocyclohexyl)-5-methyl-4-oxo-3H,4H-pyrido[2,3-d]pyrimidin-2-yl]-2-(3,5-difluorophenyl)ethyl]-2-[(2S,4S)-9-cyclopropyl-7,8-diazatricyclo[4.3.0.0^2,^4]nona-1(6),8-dien-7-yl]acetamide] were, in that order, 10.44 and greater than 50 nM.
The like results for `Cc1cc(C2CCC(F)(F)CC2)nc2nc([C@H](Cc3cc(F)cc(F)c3)NC(=O)Cn3nc(C4CC4)c4c3C[C@@H]3C[C@H]43)n(-c3ccc(Cl)c4c(NS(C)(=O)=O)nn(CCN5C[C@@H](F)[C@@H](F)C5)c34)c(=O)c12` (atropisomer, axis not shown; (P)) [Example 281, N-[(1S)-1-[(3P)-3-(4-chloro-1-{2-[(3R,4S)-3,4-difluoropyrrolidin-1-yl]ethyl}-3-methanesulfonamido-1H-indazol-7-yl)-7-(4,4-difluorocyclohexyl)-5-methyl-4-oxo-3H,4H-pyrido[2,3-d]pyrimidin-2-yl]-2-(3,5-difluorophenyl)ethyl]-2-[(2S,4S)-9-cyclopropyl-7,8-diazatricyclo[4.3.0.0^2,^4]nona-1(6),8-dien-7-yl]acetamide] were, in that order, 10.96 and greater than 50 nM.
With `Cc1cc(C2CCC(F)(F)CC2)nc2nc([C@H](Cc3cc(F)cc(F)c3)NC(=O)Cn3nc(C4CC4)c4c3C[C@@H]3C[C@H]43)n(-c3ccc(Cl)c4c(NS(C)(=O)=O)nn(CCN5CC(F)(F)C5)c34)c(=O)c12` (atropisomer, axis not shown; (P)) [Example 283, N-[(1S)-1-[(3P)-3-{4-chloro-1-[2-(3,3-difluoroazetidin-1-yl)ethyl]-3-methanesulfonamido-1H-indazol-7-yl}-7-(4,4-difluorocyclohexyl)-5-methyl-4-oxo-3H,4H-pyrido[2,3-d]pyrimidin-2-yl]-2-(3,5-difluorophenyl)ethyl]-2-[(2S,4S)-9-cyclopropyl-7,8-diazatricyclo[4.3.0.0^2,^4]nona-1(6),8-dien-7-yl]acetamide], the pEC50 in data set [1] is 11.10. The CC50 at 4 days in data set [2] (setting [3]) was greater than 50 nM.
Consider `COCCCNc1cc(C2CCC(F)(F)CC2)nc2nc([C@H](Cc3cc(F)cc(F)c3)NC(=O)Cn3nc(C(F)F)c4c3C(F)(F)[C@@H]3C[C@H]43)n(-c3ccc(Cl)c4c(NS(C)(=O)=O)nn(CCCOC)c34)c(=O)c12` (atropisomer, axis not shown; (P)) [Example 285, N-[(1S)-1-[(3P)-3-[4-chloro-3-methanesulfonamido-1-(3-methoxypropyl)-1H-indazol-7-yl]-7-(4,4-difluorocyclohexyl)-5-[(3-methoxypropyl)amino]-4-oxo-3H,4H-pyrido[2,3-d]pyrimidin-2-yl]-2-(3,5-difluorophenyl)ethyl]-2-[(2S,4R)-9-(difluoromethyl)-5,5-difluoro-7,8-diazatricyclo[4.3.0.0^2,^4]nona-1(6),8-dien-7-yl]acetamide], for which the pEC50 in data set [1] was 11.05. Also, the CC50 at 4 days in data set [2] (setting [3]) was greater than 50 nM.
The like results for `CS(=O)(=O)Nc1nn(CCN2C[C@H](F)C[C@H](F)C2)c2c(-n3c([C@H](Cc4cc(F)cc(F)c4)NC(=O)Cn4nc(C5CC5)c5c4C[C@@H]4C[C@H]54)nc4nc(C5CCC(F)(F)CC5)cc(C(F)F)c4c3=O)ccc(Cl)c12` (atropisomer, axis not shown; (P)) [Example 287, N-[(1S)-1-[(3P)-3-(4-chloro-1-{2-[(3R,5S)-3,5-difluoropiperidin-1-yl]ethyl}-3-methanesulfonamido-1H-indazol-7-yl)-7-(4,4-difluorocyclohexyl)-5-(difluoromethyl)-4-oxo-3H,4H-pyrido[2,3-d]pyrimidin-2-yl]-2-(3,5-difluorophenyl)ethyl]-2-[(2S,4S)-9-cyclopropyl-7,8-diazatricyclo[4.3.0.0^2,^4]nona-1(6),8-dien-7-yl]acetamide] were, in that order, 11.00 and greater than 50 nM.
Regarding `CS(=O)(=O)Nc1nn(CCN2C[C@H]3CC[C@@H](C2)O3)c2c(-n3c([C@H](Cc4cc(F)cc(F)c4)NC(=O)Cn4nc(C5CC5)c5c4C[C@@H]4C[C@H]54)nc4nc(C5CCC(F)(F)CC5)cc(C(F)F)c4c3=O)ccc(Cl)c12` (atropisomer, axis not shown; (P)) [Example 288, N-[(1S)-1-[(3P)-3-(4-chloro-3-methanesulfonamido-1-{2-[(1R,5S)-8-oxa-3-azabicyclo[3.2.1]octan-3-yl]ethyl}-1H-indazol-7-yl)-7-(4,4-difluorocyclohexyl)-5-(difluoromethyl)-4-oxo-3H,4H-pyrido[2,3-d]pyrimidin-2-yl]-2-(3,5-difluorophenyl)ethyl]-2-[(2S,4S)-9-cyclopropyl-7,8-diazatricyclo[4.3.0.0^2,^4]nona-1(6),8-dien-7-yl]acetamide], the pEC50 in data set [1] was 11.10. Besides, in data set [2] (setting [3]), the cytotoxic concentration (CC50) at 4 days is greater than 50 nM.
`CS(=O)(=O)Nc1nn(CCN2[C@@H]3CC[C@H]2COC3)c2c(-n3c([C@H](Cc4cc(F)cc(F)c4)NC(=O)Cn4nc(C5CC5)c5c4C[C@@H]4C[C@H]54)nc4nc(C5CCC(F)(F)CC5)cc(C(F)F)c4c3=O)ccc(Cl)c12` (atropisomer, axis not shown; (P)) [Example 289, N-[(1S)-1-[(3P)-3-(4-chloro-3-methanesulfonamido-1-{2-[(1R,5S)-3-oxa-8-azabicyclo[3.2.1]octan-8-yl]ethyl}-1H-indazol-7-yl)-7-(4,4-difluorocyclohexyl)-5-(difluoromethyl)-4-oxo-3H,4H-pyrido[2,3-d]pyrimidin-2-yl]-2-(3,5-difluorophenyl)ethyl]-2-[(2S,4S)-9-cyclopropyl-7,8-diazatricyclo[4.3.0.0^2,^4]nona-1(6),8-dien-7-yl]acetamide]: the pEC50 in data set [1] was 10.60. This compound also showed a CC50 at 4 days in data set [2] greater than 50 nM.
Take `CC1(F)CCN(CCn2nc(NS(C)(=O)=O)c3c(Cl)ccc(-n4c([C@H](Cc5cc(F)cc(F)c5)NC(=O)Cn5nc(C(F)F)c6c5C(F)(F)[C@@H]5C[C@H]65)nc5nc(C6CCC(F)(F)CC6)cc(C(F)F)c5c4=O)c32)CC1` (atropisomer, axis not shown; (P)) [Example 290, N-[(1S)-1-[(3P)-3-{4-chloro-1-[2-(4-fluoro-4-methylpiperidin-1-yl)ethyl]-3-methanesulfonamido-1H-indazol-7-yl}-7-(4,4-difluorocyclohexyl)-5-(difluoromethyl)-4-oxo-3H,4H-pyrido[2,3-d]pyrimidin-2-yl]-2-(3,5-difluorophenyl)ethyl]-2-[(2S,4R)-9-(difluoromethyl)-5,5-difluoro-7,8-diazatricyclo[4.3.0.0^2,^4]nona-1(6),8-dien-7-yl]acetamide]: in data set [1], the pEC50 was 10.64. Further, in data set [2] (setting [3]), the CC50 at 4 days was greater than 50 nM.
